Measured values taken from PMC12340956, “Tranylcypromine-Based LSD1 Inhibitors as Useful Agents to Reduce Viability of” (ACS Infectious Diseases, 2025).
Like-named read-outs stand apart in the source and are kept apart here.

What was measured:
[1] = test system: newly transformed schistosomula (NTS); assay: NTS viability phenotypic screening, 72 h; settings: for IC50: Schistosoma mansoni, read-out: IC50 (NTS viability)
[2] = test system: adult worms; assay: Adult worm viability phenotypic assay, 72 h; settings: Schistosoma mansoni, read-out: IC50 (adult worm viability)
Protocol: The life cycle is maintained at the Swiss TPH as described previously. Cercariae were obtained from infected snails by exposing them to a strong light source for 3–4 h in pond water.
For NTS and adult worms, transparent flat-bottom 96- and 24-well plates were used, respectively (Sarstedt, Switzerland). For juvenile worms, 48-well plates were used with 3–6 worms per plate and RPMI medium with 5% FCS and 1% penicillin/streptomycin. Compounds were initially tested at 20 and 10 μM in triplicate on NTS and repeated once; each well contained 30–40 NTS. Phenotypic reference points such as motility, morphology, and granularity were used to score incubated parasites’ overall viability (scores from 0 to 3). […] Identified hits from the NTS screening were tested on adult worms. […] The experiment was conducted in duplicate and repeated; standard deviations were calculated from two wells. […] For all in vitro assays, negative controls (DMSO at the highest tested concentration) were included.

[3] = test system: adult worms; assay: Pairing and egg laying of adult worms; assay type: cell-based, Schistosoma mansoni; settings: for eggs' number: 20 μM; for effect on worm pairing: adult worms
Protocol: Selected compounds 2, 15, 18, and 19 were tested on adult worms to evaluate their effects on pairing and egg laying.

[4] = molecular target: T1, human LSD1-CoREST complex (Homo sapiens, UniProt O60341); assay: HRP-coupled LSD1 inhibition assay; assay type: biochemical; settings: 10 min preincubation, read-out: IC50 (hLSD1 direct inhibition)
T1 construct: made in house
Protocol: Protein expression, thermal stability, and inhibition of human LSD1-CoREST were performed using established protocols. […] The reaction was initiated by adding an equal volume of the substrate solution to the enzyme–inhibitor mixture, and resorufin fluorescence (excitation at 530–570 nm and emission at 580–590 nm) was detected with a Clariostar plate reader.

[5] = test system: NTS; assay: Speed-of-action assay in NTS; assay type: cell-based, Schistosoma mansoni; settings: for Percentage of effect: NTS; for IC50: Schistosoma mansoni, read-out: IC50 (speed of action, NTS)
Source text: (§1) To better characterize a selection of our LSD1i in vitro, we assessed the onset of their action, defined as the time required for an observable antischistosomal effect. […] For detailed percentages of activity at each time point, refer to the Supporting Information (Tables S2 and S3 in Supporting Information).

[6] = MTT cytotoxicity in RPE cells; assay type: cell-based; settings: human, retinal pigment epithelial (RPE) cells; for viability at 72 h, 5 µM / viability at 72 h, 10 µM / viability at 72 h, 25 µM / viability at 72 h, 50 µM: read-out: percentage of viability, 72 h; for IC50 at 72 h: read-out: IC50 (cell viability)
Protocol: (§2) The MTT method was used to evaluate cell viability after 72 h of treatment.
(§3) Human commercial lung diploid fibroblasts (MRC-5), and diploid retinal epithelium cells (RPE) were obtained from the American Type Culture Collection (ATCC) and kindly provided by Dr Francesca Degrassi (CNR IBPM) and maintained in minimal essential medium or DMEM-F12 medium supplemented with fetal calf serum, antibiotics, and nonessential amino acids. Cells were grown at 37 °C, in a humidified atmosphere, with 5% CO2. For experiments, cells were seeded in 200 μL of complete in each well of a 96-well microtiter plate. After 24 h, compounds were added at 5, 10, 25, and 50 μM for 72 h in sextuplicate. MTT was added (0.5 mg/mL), incubated for 4 h at 37 °C, and dissolved in 200 μL of isopropyl alcohol. Absorbance was measured at 570 nm (ELISA reader, DASIT), and cell viability was calculated as viability=(ODoftreatedcells/ODofcontrolcells)×100

[7] = test system: S. mansoni juvenile forms; assay: Speed-of-action assay in juvenile forms; assay type: cell-based, Schistosoma mansoni; settings: for IC50: Schistosoma mansoni, read-out: IC50 (speed of action, juvenile forms); for Percentage of effect: juvenile forms
Source text: as §1

[8] = molecular target: T1, human LSD1-CoREST complex; assay: ThermoFAD thermal stability assay; assay type: binding; settings: LSD1-CoREST thermal stability
Protocol: Compounds 14–22 were tested against the human LSD1-CoREST complex to determine their inhibitory activity. […] ThermoFAD assays were then performed to assess the impact of 14–22 on the thermal stability (ΔT m values, Table ) of the LSD1-CoREST complex. The most significant shifts in Tm values corresponded to the strongest binders. […] Compound 22 was not tested, considering its previous negative results.
Protein expression, thermal stability, and inhibition of human LSD1-CoREST were performed using established protocols. […] LSD1-CoREST (0.4 μM) was preincubated with the inhibitor at 25 °C for 10 min in the presence of 5% DMSO. The reaction was initiated by adding an equal volume of the substrate solution to the enzyme–inhibitor mixture, and resorufin fluorescence (excitation at 530–570 nm and emission at 580–590 nm) was detected with a Clariostar plate reader.

[9] = MTT cytotoxicity in MRC-5 cells; assay type: cell-based; settings: human, MRC-5 lung diploid fibroblast cells; for viability at 72 h, 5 µM / viability at 72 h, 10 µM / viability at 72 h, 25 µM / viability at 72 h, 50 µM: read-out: percentage of viability, 72 h; for IC50 at 72 h: read-out: IC50 (cell viability)
Protocol: as §2, §3

CCCc1ccc(C(=O)Nc2ccc(C3CC3N)cc2)cc1.Cl (centres unmarked) [Compound 15, N-(4-(2-Aminocyclopropyl)phenyl)-4-propylbenzamide Hydrochloride]
Percentage of reduction of NTS viability, 72 h ([1]; 1 μM): 30.2 ± 1.9% | Percentage of reduction of NTS viability, 72 h ([1]; 10 μM): 87.5 ± 4.2% | Percentage of reduction of NTS viability, 72 h ([1]; 20 μM): 100 ± 0.0% | IC50 [1]: 1.72 µM | IC50 [2]: > 10 µM | eggs' number ([3]; 4 h): 0 | eggs' number ([3]; 8 h): 0 | eggs' number ([3]; 24 h): 0 | eggs' number ([3]; 48 h): 0 | eggs' number ([3]; 72 h): 8 | effect on worm pairing [3]: no impact on worm pairing | IC50 [4]: 0.12 ± 0.02 µM | Percentage of effect ([5]; 4 h, 10 μM): 21.15% | Percentage of effect ([5]; 4 h, 20 μM): 38.46% | Percentage of effect ([5]; 24 h, 10 μM): 50% | Percentage of effect ([5]; 24 h, 20 μM): 57.14% | Percentage of effect ([5]; 48 h, 10 μM): 51.02% | Percentage of effect ([5]; 48 h, 20 μM): 91.84% | Percentage of effect ([5]; 72 h, 10 μM): 71.43% | Percentage of effect ([5]; 72 h, 20 μM): 100% | IC50 ([5]; 4 h): > 20 µM | IC50 ([5]; 24 h): 10 µM | IC50 ([5]; 48 h): 9.9 µM | IC50 ([5]; 72 h): 9.3 µM | viability at 72 h, 5 µM [6]: 89 ± 3% | viability at 72 h, 10 µM [6]: 104 ± 12% | viability at 72 h, 25 µM [6]: 99 ± 6% | viability at 72 h, 50 µM [6]: 106 ± 17% | IC50 at 72 h [6]: > 100 µM | IC50 ([7]; 4 h): > 20 µM | IC50 ([7]; 24 h): > 20 µM | IC50 ([7]; 48 h): > 20 µM | IC50 ([7]; 72 h): 4.3 µM | Percentage of effect ([7]; 4 h, 1 μM): 23.33% | Percentage of effect ([7]; 4 h, 10 μM): 33.33% | Percentage of effect ([7]; 4 h, 20 μM): 45.45% | Percentage of effect ([7]; 24 h, 1 μM): 24.14% | Percentage of effect ([7]; 24 h, 10 μM): 34.48% | Percentage of effect ([7]; 24 h, 20 μM): 48.08% | Percentage of effect ([7]; 48 h, 1 μM): 34.62% | Percentage of effect ([7]; 48 h, 10 μM): 42.31% | Percentage of effect ([7]; 48 h, 20 μM): 50% | Percentage of effect ([7]; 72 h, 1 μM): 40.96% | Percentage of effect ([7]; 72 h, 10 μM): 44.55% | Percentage of effect ([7]; 72 h, 20 μM): 70.83% | ΔTm [8]: +9.5 °C | viability at 72 h, 5 µM [9]: 81 ± 16% | viability at 72 h, 10 µM [9]: 91 ± 20% | viability at 72 h, 25 µM [9]: 89 ± 17% | viability at 72 h, 50 µM [9]: 92 ± 20% | IC50 at 72 h [9]: > 100 µM

CC#Cc1ccc(C(=O)Nc2ccc(C3CC3N)cc2)cc1.Cl (centres unmarked) [Compound 18, N-(4-(2-Aminocyclopropyl)phenyl)-4-(prop-1-yn-1-yl)benzamide Hydrochloride]
Percentage of reduction of NTS viability, 72 h ([1]; 1 μM): 22.6 ± 1.9% | Percentage of reduction of NTS viability, 72 h ([1]; 10 μM): 95.8 ± 4.2% | Percentage of reduction of NTS viability, 72 h ([1]; 20 μM): 100 ± 0.0% | IC50 [1]: 1.76 µM | IC50 [2]: > 10 µM | eggs' number ([3]; 4 h): 0 | eggs' number ([3]; 8 h): 0 | eggs' number ([3]; 24 h): 0 | eggs' number ([3]; 48 h): 0 | eggs' number ([3]; 72 h): 2 | effect on worm pairing [3]: no impact on worm pairing | IC50 [4]: 0.13 ± 0.02 µM | Percentage of effect ([5]; 4 h, 10 μM): 26.92% | Percentage of effect ([5]; 4 h, 20 μM): 30.77% | Percentage of effect ([5]; 24 h, 10 μM): 51.79% | Percentage of effect ([5]; 24 h, 20 μM): 75% | Percentage of effect ([5]; 48 h, 10 μM): 81.63% | Percentage of effect ([5]; 48 h, 20 μM): 87.76% | Percentage of effect ([5]; 72 h, 20 μM): 100% | IC50 ([5]; 4 h): > 20 µM | IC50 ([5]; 24 h): 6.9 µM | IC50 ([5]; 48 h): 4.4 µM | IC50 ([5]; 72 h): 2.4 µM | viability at 72 h, 5 µM [6]: 82 ± 21% | viability at 72 h, 10 µM [6]: 86 ± 36% | viability at 72 h, 25 µM [6]: 104 ± 20% | viability at 72 h, 50 µM [6]: 95 ± 2% | IC50 at 72 h [6]: > 100 µM | IC50 ([7]; 4 h): > 20 µM | IC50 ([7]; 24 h): > 20 µM | IC50 ([7]; 48 h): > 20 µM | IC50 ([7]; 72 h): 3.8 µM | Percentage of effect ([7]; 4 h, 1 μM): 20% | Percentage of effect ([7]; 4 h, 10 μM): 20% | Percentage of effect ([7]; 4 h, 20 μM): 43.64% | Percentage of effect ([7]; 24 h, 1 μM): 24.14% | Percentage of effect ([7]; 24 h, 10 μM): 31.03% | Percentage of effect ([7]; 24 h, 20 μM): 46.15% | Percentage of effect ([7]; 48 h, 1 μM): 34.62% | Percentage of effect ([7]; 48 h, 10 μM): 42.31% | Percentage of effect ([7]; 48 h, 20 μM): 47.92% | Percentage of effect ([7]; 72 h, 1 μM): 42.81% | Percentage of effect ([7]; 72 h, 10 μM): 44.77% | Percentage of effect ([7]; 72 h, 20 μM): 70.83% | ΔTm [8]: +8 °C | viability at 72 h, 5 µM [9]: 111 ± 10% | viability at 72 h, 10 µM [9]: 75 ± 15% | viability at 72 h, 25 µM [9]: 98 ± 14% | viability at 72 h, 50 µM [9]: 75 ± 12% | IC50 at 72 h [9]: > 100 µM
